Like-named read-outs stand apart in the source and are kept apart here.
Assays:
Test in all cases: MIC alone and checkerboard with EDTA or polymyxin B
Format in all cases: cell-based
[1] = tested on: E. coli; settings: for MIC of polymyxin B in combination with NCL195: with NCL195 0.25 μg/ml; for MIC: Escherichia coli, read-out: MIC, agent alone
Procedure: (§1) MICs for NCL812 and its analogs (serial two-fold dilutions commencing at 128 μg/ml) were determined (in duplicate) in round bottom 96-well microtitre trays (Sarstedt 82.1582.001), using the broth micro-dilution method recommended by the Clinical and Laboratory Standards Institute (CLSI). […] MIC50, MIC90 and MIC range for NCL812, NCL195 and NCL219 were calculated against each S. pneumoniae, S. aureus or VRE isolate. To assess the potential activity of NCL195 against Gram-negative bacteria, MICs against Acinetobacter spp, E. coli, K. pneumoniae, P. aeruginosa, Proteus spp and Neisseria meningitidis were performed in the presence or absence of 0.08 mM-20 mM EDTA in a standard checkerboard assay.

[2] = tested on: K. pneumoniae; settings: for MIC of EDTA in combination with NCL195: with NCL195 4 μg/ml; for MIC: Klebsiella pneumoniae, read-out: MIC, agent alone
Procedure: as §1

[3] = tested on: P. aeruginosa; settings: for MIC of polymyxin B in combination with NCL195: with NCL195 1 μg/ml; for MIC: Pseudomonas aeruginosa, read-out: MIC, agent alone
Procedure: as §1

[4] = tested on: A. baumannii; settings: for MIC of polymyxin B in combination with NCL195: with NCL195 0.5 μg/ml; for MIC: Acinetobacter baumannii, read-out: MIC, agent alone
Procedure: as §1

In the case of Polymyxin B sulfate, the “MIC, agent alone” value ([1]; E. coli ATCC 11229) is reported as 0.25 µg/mL, the “MIC of polymyxin B in combination with NCL195” value (“MIC of polymyxin B” below) ([1]; E. coli ATCC 11229) is reported as 0.125 µg/mL and the “MIC, agent alone” value ([1]; E. coli ATCC 25922) is reported as 0.25 µg/mL. For the same compound, the “MIC of polymyxin B” value ([1]; E. coli ATCC 25922) was 0.125 µg/mL, the “MIC, agent alone” value ([2]; K. pneumoniae ATCC 4352) was 0.25 µg/mL and the “MIC of polymyxin B” value ([2]; K. pneumoniae ATCC 4352, with NCL195 0.5 μg/ml) was 0.125 µg/mL. The “MIC, agent alone” value ([2]; K. pneumoniae ATCC 33495) was 0.25 µg/mL, the “MIC of polymyxin B” value ([2]; K. pneumoniae ATCC 33495, with NCL195 0.25 μg/ml) was 0.125 µg/mL and the “MIC, agent alone” value ([3]; P. aeruginosa ATCC 27853) was 0.5 µg/mL. The “MIC of polymyxin B” value ([3]; P. aeruginosa ATCC 27853) was 0.125 µg/mL, the “MIC, agent alone” value ([3]; P. aeruginosa PA01) was 0.5 µg/mL and the “MIC of polymyxin B” value ([3]; P. aeruginosa PA01) was 0.125 µg/mL. For the same compound, the “MIC, agent alone” value ([4]; A. baumannii ATCC 12457) was 0.5 µg/mL, the “MIC of polymyxin B” value ([4]; A. baumannii ATCC 12457) was 0.125 µg/mL and the “MIC, agent alone” value ([4]; A. baumannii ATCC 19606) was 0.5 µg/mL. For the same compound, the “MIC of polymyxin B” value ([4]; A. baumannii ATCC 19606) was 0.125 µg/mL.

For O=C(O)CN(CCN(CC(=O)O)CC(=O)O)CC(=O)O [EDTA, Ethylenediaminetetraacetic acid], the “MIC of EDTA in combination with NCL195” value ([1]; E. coli ATCC 11229, with NCL195 8 μg/ml) was 0.625 mM, the “MIC of EDTA in combination with NCL195” value ([1]; E. coli ATCC 25922, with NCL195 4 μg/ml) was 2.5 mM and the MIC ([1]; ATCC11229, E. coli ATCC 11229) was 2.5 mM. For the same compound, the MIC ([1]; ATCC25922, E. coli ATCC 25922) was 10 mM, the “MIC of EDTA in combination with NCL195” value ([2]; K. pneumoniae ATCC 4352) was 10 mM and the “MIC of EDTA in combination with NCL195” value ([2]; K. pneumoniae ATCC 33495) was 10 mM. The MIC ([2]; ATCC4352, K. pneumoniae ATCC 4352) was over 30 mM, the MIC ([2]; ATCC33495, K. pneumoniae ATCC 33495) was over 30 mM and the “MIC of EDTA in combination with NCL195” value ([3]; P. aeruginosa ATCC 27853, with NCL195 2 μg/ml) was 5 mM. For the same compound, the “MIC of EDTA in combination with NCL195” value ([3]; P. aeruginosa PA01, with NCL195 0.25 μg/ml) was 1.25 mM, the MIC ([3]; ATCC27853, P. aeruginosa ATCC 27853) was 10 mM and the MIC ([3]; P. aeruginosa PA01) was 2.5 mM. The “MIC of EDTA in combination with NCL195” value ([4]; A. baumannii ATCC 12457, with NCL195 4 μg/ml) was 0.25 mM, the “MIC of EDTA in combination with NCL195” value ([4]; A. baumannii ATCC 19606, with NCL195 2 μg/ml) was 0.5 mM and the MIC ([4]; ATCC12457, A. baumannii ATCC 12457) was 500 µM. It also gave an MIC ([4]; ATCC19606, A. baumannii ATCC 19606) of 1000 µM.
